# Reference: ChEMBL document CHEMBL3046853, “Synthesis, antimicrobial evaluation, ot-QSAR and mt-QSAR studies of 2-amino benzoic acid derivatives” (2012)
# Activity calls are given as the source filed them. No cut-off for these calls is given here.
# Assays:
# [1] = tested on: Candida albicans; assay: Antifungal activity against Candida albicans after 2 days by serial dilution technique; type: functional
# [2] = tested on: Staphylococcus aureus; assay: Bactericidal activity against Staphylococcus aureus; type: functional, organism-based
# [3] = tested on: Escherichia coli; assay: Bactericidal activity against Escherichia coli; type: functional, organism-based
# [4] = tested on: Staphylococcus aureus; assay: Antibacterial activity against Staphylococcus aureus after 24 hr by serial dilution technique; type: functional
# [5] = tested on: Candida albicans; assay: Fungicidal activity against Candida albicans; type: functional, organism-based
# [6] = tested on: Bacillus subtilis; assay: Antibacterial activity against Bacillus subtilis after 24 hr by serial dilution technique; type: functional
# [7] = tested on: Aspergillus niger; assay: Antifungal activity against Aspergillus niger after 7 days by serial dilution technique; type: functional
# [8] = tested on: Bacillus subtilis; assay: Bactericidal activity against Bacillus subtilis; type: functional, organism-based
# [9] = tested on: Aspergillus niger; assay: Fungicidal activity against Aspergillus niger after 7 days by serial dilution technique; type: functional, organism-based
# [10] = tested on: Escherichia coli; assay: Antibacterial activity against Escherichia coli after 24 hr by serial dilution technique; type: functional
Structure (SMILES),-logMIC [1],Activity [2],Activity [3],-logMIC [4],Activity [5],-logMIC [6],-logMIC [7],Activity [8],Activity [9],-logMIC [10]
Cc1ccccc1NC(=O)c1ccccc1N,1.56,Active,Active,1.26,Active,1.86,1.56,Active,Active,1.26
Nc1ccccc1C(=O)N1CCOCC1 [(2-AMINOPHENYL)(MORPHOLINO)METHANONE],1.22,Active,Active,1.22,Active,1.22,1.22,Active,Active,1.52
CCOC(=O)c1ccccc1N [ETHYL ANTHRANILATE],1.12,Active,Active,1.12,Active,1.91,1.72,Active,Active,1.72
CCCCCCCOC(=O)c1ccccc1N [HEPTYL 2-AMINOBENZOATE],1.58,Active,Active,1.27,Active,1.88,1.58,Active,Active,1.88
CN(C)C(=O)c1ccccc1N,0.82,Active,Active,0.82,Active,2.02,1.42,Active,Active,1.42
CCCCOC(=O)c1ccccc1N [BUTYL 2-AMINOBENZOATE],1.19,Active,Active,1.2,Active,2.09,1.3,Active,Active,1.79
CCCCN(CCCC)C(=O)c1ccccc1N,1.3,Active,Active,1.3,Active,2.2,1.6,Active,Active,1.6
Cc1ccc(C)c(NC(=O)c2ccccc2N)c1,1.3,Active,Active,1.28,Active,2.19,1.28,Active,Active,1.28
CCn1cc(C(=O)O)c(=O)c2cc(F)c(N3CCNCC3)cc21 [NORFLOXACIN],–,–,–,3.33,–,3.33,–,–,–,3.33
Nc1ccccc1C(=O)Nc1ccc2ccccc2c1,1.32,Active,Active,1.32,Active,2.23,1.62,Active,Active,1.62
CC(C)CCOC(=O)c1ccccc1N [ISOPENTYL 2-AMINOBENZOATE],1.22,Active,Active,1.22,Active,2.12,1.22,Active,Active,1.82
CCN(CC)C(=O)c1ccccc1N,1.19,Active,Active,1.19,Active,2.09,1.49,Active,Active,1.19
OC(Cn1cncn1)(Cn1cncn1)c1ccc(F)cc1F [FLUCONAZOLE],2.64,–,–,–,–,–,2.64,–,–,–
Nc1ccccc1C(=O)Nc1ccc(F)c(Cl)c1,1.33,Active,Active,1.33,Active,2.23,1.02,Active,Active,1.33
